Laboratory results reported in patent US12404285B2, “KRAS G12D proteolysis targeting chimeras” (PAQ Therapeutics Inc., priority 2022, dated 2025).

Assays:
[1] = molecular target: T1, KRAS in AGS cells (KRAS G12D mutant cell line) or LS180 cells (KRAS G12D mutant cell line) (Homo sapiens, UniProt P01116, G12D); test: KRAS Western Blot (WB) assay; assay type: cell-based; settings: KRAS degradation, 24 hours incubation, normalized to β-actin
T1 construct: CRL-187 (LS180) (so in the source); host or cells: AGS or LS180 cells
Method in brief: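 AGS or LS180 (KRAS G12D) cells treated 24 h with compound; lysates run on SDS-PAGE and immunoblotted for KRAS with β-actin loading control. Fluorescent secondary detection; KRAS bands quantified, normalized to β-actin, giving DC50.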

[2] = molecular target: T2, KRAS (G12D)-HiBit in AsPc-1-KRAS (G12D)-HiBit-KI cell (Homo sapiens, UniProt P01116, G12D); test: G12D HiBit assay; assay type: cell-based; settings: 24 hours compound treatment, absolute DC50, read-out: Average PHA DC50
T2 construct: host or cells: AsPc-1-KRAS (G12D)-HiBit-KI cells (knock-in line)
Method in brief: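 AsPc-1 cells with HiBiT knocked into KRAS G12D, seeded at 5×10^3/well and held overnight, then treated 24 h with 10-point 3-fold dilutions (300 nM to 0.015 nM). Lytic Nano-Glo HiBiT luminescence expressed as % of 0.1% DMSO control; absolute DC50 from curve fit.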

KRAS G12C = KRAS G12C (Homo sapiens, UniProt P01116, G12C); settings: homozygous and heterozygous tumor cells; cited from earlier work
KRAS G12D [3] = molecular target: T3, KRAS G12D (Homo sapiens, UniProt P01116, G12D); settings: switch II pocket of KRAS G12D; noncovalent; cited from earlier work
KRAS G12D [4] = molecular target: T3, KRAS G12D; settings: cited from earlier work
[5] = tested on: tumor models harboring KRAS G12D mutations; settings: cited from earlier work

Compound | DC50 [1] | DC50 [2] [nM] | further results
C#Cc1c(F)ccc2cc(O)cc(-c3ncc4c(N5CC6CCC(C5)N6)nc(OC[C@@]56CCCN5[C@H](COC(=O)NCCOCCOCCOCCNc5cccc7c5C(=O)N(C5CCC(=O)NC5=O)C7=O)CC6)nc4c3F)c12 (stereo partly drawn) [Compound 027, [(3R,8R)-8-[[4-(3,8-diazabicyclo[3.2.1]octan-3-yl)-7-(8-ethynyl-7-fluoro-3-hydroxy-1-naphthyl)-8-fluoro-pyrido[4,3-d]pyrimidin-2-yl]oxymethyl]-1,2,3,5,6,7-hexahydropyrrolizin-3-yl]methyl N-[2-[2-[2-[2-[[2-(2,6-dioxo-3-piperidyl)-1,3-dioxo-isoindolin-4-yl]amino]ethoxy]ethoxy]ethoxy]ethyl]carbamate] | C (DC50 greater than or equal to 10 μM) |  | 
C#Cc1c(F)ccc2cc(O)cc(-c3ncc4c(N5CC6CCC(C5)N6)nc(OC[C@@]56CCCN5[C@H](COC(=O)NCCOCCOCCOCCNc5cccc7c5C(=O)N(C5CCC(=O)NC5=O)C7=O)CC6)nc4c3F)c12 (stereo partly drawn) [Compound 028, [(3S,8S)-8-[[4-(3,8-diazabicyclo[3.2.1]octan-3-yl)-7-(8-ethynyl-7-fluoro-3-hydroxy-1-naphthyl)-8-fluoro-pyrido[4,3-d]pyrimidin-2-yl]oxymethyl]-1,2,3,5,6,7-hexahydropyrrolizin-3-yl]methylN-[2-[2-[2-[2-[[2-(2,6-dioxo-3-piperidyl)-1,3-dioxo-isoindolin-4-yl]amino]ethoxy]ethoxy]ethoxy]ethyl]carbamate] | C (DC50 greater than or equal to 10 μM) |  | 
C#Cc1c(F)ccc2cccc(-c3ncc4c(N5CC6CCC(C5)N6)nc(OC[C@@]56CCCN5[C@H](COC(=O)NCCCCCCCCc5ccc7c(c5)n(C)c(=O)n7C5CCC(=O)NC5=O)CC6)nc4c3F)c12 (stereo partly drawn) [Compound 029, [(3S,8S)-8-[[4-(3, example 208-diazabicyclo[3.2.1]octan-3-yl)-7-(8-ethynyl-7-fluoro-1-naphthyl)-8-fluoro-pyrido[4,3-d]pyrimidin-2-yl]oxymethyl]-1,2,3,5,6,7-hexahydropyrrolizin-3-yl]methyl N-[8-[1-(2,6-dioxo-3-piperidyl)-3-methyl-2-oxo-benzimidazol-5-yl]octyl]carbamate] | A (DC50 less than 1 μM) |  | 
C#Cc1c(F)ccc2cccc(-c3ncc4c(N5CC6CCC(C5)N6)nc(OC[C@@]56CCCN5[C@H](COC(=O)N5CCC(OCCCc7cccc8c7n(C)c(=O)n8C7CCC(=O)NC7=O)CC5)CC6)nc4c3F)c12 (stereo partly drawn) [Compound 031, [(3S,8S)-8-[[4-(3,8-diazabicyclo[3.2.1]octan-3-yl)-7-(8-ethynyl-7-fluoro-1-naphthyl)-8-fluoro-pyrido[4,3-d]pyrimidin-2-yl]oxymethyl]-1,2,3,5,6,7-hexahydropyrrolizin-3-yl]methyl 4-[3-[1-(2,6-dioxo-3-piperidyl)-3-methyl-2-oxo-benzimidazol-4-yl]propoxy]piperidine-1-carboxylate] | A (DC50 less than 1 μM) | < 100 | 
C#Cc1c(F)ccc2cc(O)cc(-c3ncc4c(N5CC6CCC(C5)N6)nc(OC[C@@]56CCCN5[C@H](COC(=O)N5CCC(OCCCc7cccc8c7n(C)c(=O)n8C7CCC(=O)NC7=O)CC5)CC6)nc4c3F)c12 (stereo partly drawn) [Compound 032, [(3S,8S)-8-[[4-(3,8-diazabicyclo[3.2.1]octan-3-yl)-7-(8-ethynyl-7-fluoro-3-hydroxy-1-naphthyl)-8-fluoro-pyrido[4,3-d]pyrimidin-2-yl]oxymethyl]-1,2,3,5,6,7-hexahydropyrrolizin-3-yl]methyl4-[3-[1-(2,6-dioxo-3-piperidyl)-3-methyl-2-oxo-benzimidazol-4-yl]propoxy]piperidine-1-carboxylate] | A (DC50 less than 1 μM) | < 100 | 
C#Cc1c(F)ccc2cc(O)cc(-c3ncc4c(N5CC6CCC(C5)N6)nc(OC[C@@]56CCCN5[C@H](COC(=O)N5CCC(OCC#Cc7cccc8c7n(C)c(=O)n8C7CCC(=O)NC7=O)CC5)CC6)nc4c3F)c12 (stereo partly drawn) [Compound 033, [(3S,8S)-8-[[4-(3,8-diazabicyclo[3.2.1]octan-3-yl)-7-(8-ethynyl-7-fluoro-3-hydroxy-1-naphthyl)-8-fluoro-pyrido[4,3-d]pyrimidin-2-yl]oxymethyl]-1,2,3,5,6,7-hexahydropyrrolizin-3-yl]methyl 4-[3-[1-(2,6-dioxo-3-piperidyl)-3-methyl-2-oxo-benzimidazol-4-yl]prop-2-ynoxy]piperidine-1-carboxylate] | A (DC50 less than 1 μM) | < 100 | 
C=C(F)C(=O)N1CCN(c2nc(OC[C@@H]3CCCN3CCCOCCC(=O)N[C@H](C(=O)N3C[C@H](O)C[C@H]3C(=O)NCc3ccc(-c4scnc4C)cc3)C(C)(C)C)nc3c2CCN(c2cccc4cccc(Cl)c24)C3)C[C@@H]1CC#N [LC-2] |  |  | degradation of KRAS G12C (KRAS G12C): can rapidly degrade KRAS G12C
C#Cc1c(F)ccc2cc(O)cc(-c3ncc4c(N5CC6CCC(C5)N6)nc(OC[C@@]56CCCN5C[C@H](F)C6)nc4c3F)c12 [MRTX1133] |  |  | binding affinity (KRAS G12D [3]): picomolar; activity in cellular assays (KRAS G12D [4]): low nanomolar; in vivo efficacy [5]: in vivo efficacy
